# Measurements reported in patent US6472349B1, “Pyridine-2,3-dicarboxylic acid diamides” (BASF Aktiengesellschaft, priority 1999, dated 2002).
# Experiments:
# [1] = system: AMARE; assay: Herbicidal activity post-emergence in greenhouse, redroot pigweed; type: in vivo; details: 100 = complete destruction, 0 = no damage
# Excerpt: (§1) The herbicidal action of the pyridine-2,3-dicarboxamides of the formula I was examined in greenhouse experiments: […]
# (§2) The growing containers used were plastic pots containing loamy sand with approximately 3.0% of humus as the substrate. The seeds of the test plants were sown separately for each species.
# (§3) For the post-emergence treatment, the test plants were first grown to a plant height of 3 to 15 cm, depending on the growth habit, and then treated with the active ingredients which had been suspended or emulsified in water. The test plants were either sown directly and grown in the same containers or first grown separately as seedlings and transplanted into the test containers a few days prior to treatment. The rate of application for the post-emergence treatment was 0.5; 0.0625; 0.0313 or 0.0156 kg/ha of a.s.
# (§4) Depending on the species, the plants were kept at 10-25° C. or 20-35° C. The test period extended over 2 to 4 weeks. During this time, the plants were tended, and their response to the individual treatments was evaluated.
# (§5) Evaluation was carried out using a scale from 0 to 100. 100 means no emergence of the plants or complete destruction of at least the above-ground parts, and 0 means no damage or normal course of growth.
# (§6) The plants used in the greenhouse experiments belonged to the following species: […]
# [2] = system: ALOMY; assay: Herbicidal activity post-emergence in greenhouse, blackgrass; type: in vivo; details: 100 = complete destruction, 0 = no damage
# Excerpt: as §1, §2, §3, §4, §5, §6
# [3] = system: IPOSS; assay: Herbicidal activity post-emergence in greenhouse, morning glory; type: in vivo; details: 100 = complete destruction, 0 = no damage
# Excerpt: as §1, §2, §3, §4, §5, §6
# [4] = system: SOLNI; assay: Herbicidal activity post-emergence in greenhouse, black nightshade; type: in vivo; details: 100 = complete destruction, 0 = no damage
# Excerpt: as §1, §2, §3, §4, §5, §6
# [5] = system: VIOAR; assay: Herbicidal activity post-emergence in greenhouse, violet; type: in vivo; details: application rate 0.5 kg of a.s./ha, 100 = complete destruction, 0 = no damage
# Excerpt: as §1, §2, §3, §4, §5, §6
# [6] = system: GALAP; assay: Herbicidal activity post-emergence in greenhouse, catchweed bedstraw; type: in vivo; details: application rate 0.5 kg of a.s./ha, 100 = complete destruction, 0 = no damage
# Excerpt: as §1, §2, §3, §4, §5, §6
# [7] = system: ECGCG; assay: Herbicidal activity post-emergence in greenhouse, barnyard grass; type: in vivo; details: application rate 0.5 kg of a.s./ha, 100 = complete destruction, 0 = no damage
# Excerpt: as §1, §2, §3, §4, §5, §6
# [8] = application rate 0.0313 kg of a.s./ha
# [9] = application rate 0.0625 kg of a.s./ha
melting point [°C],SMILES,"Herbicidal activity (scale 0 to 100), AMARE [1, 8]","Herbicidal activity (scale 0 to 100), AMARE [1, 9]","Herbicidal activity (scale 0 to 100), ALOMY [2, 8]","Herbicidal activity (scale 0 to 100), ALOMY [2, 9]","Herbicidal activity (scale 0 to 100), IPOSS [3, 8]","Herbicidal activity (scale 0 to 100), IPOSS [3, 9]",also measured
175 to 178,"CCCNC(=O)c1nc(C)ccc1C(=O)Nc1cccc2ccccc12 [Example 1, N-n-Propyl-3-(1-naphthyl)aminocarbonyl-6-methylpyridine-2-carboxamide]",–,–,–,–,–,–,–
151 to 152,"CCCNC(=O)c1nc(C)ccc1C(=O)Nc1cccc(SC)c1C [Example 2, N-n-Propyl-3-(2-methyl-3-methylthiophenyl)aminocarbonyl-6-methylpyridine-2-carboxamide]",–,–,–,–,–,–,–
180 to 181,"Cc1ccc2c(n1)C(=O)N(c1cccc(S(C)(=O)=O)c1C)C2=O [Example 3, N-(2-Methyl-3-methylsulfonylphenyl)-6-methylpyridine-2,3-dicarboximide]",–,–,–,–,–,–,–

# Further lines, the compound ahead of its results:
SMILES,melting point [°C],"Herbicidal activity (scale 0 to 100), AMARE [1, 8]","Herbicidal activity (scale 0 to 100), AMARE [1, 9]","Herbicidal activity (scale 0 to 100), ALOMY [2, 8]","Herbicidal activity (scale 0 to 100), ALOMY [2, 9]","Herbicidal activity (scale 0 to 100), IPOSS [3, 8]","Herbicidal activity (scale 0 to 100), IPOSS [3, 9]",also measured
CCCNC(=O)c1nc(OC)c(Cl)cc1C(=O)Nc1cccc(Cl)c1C,–,98,100,75,85,98,100,"Herbicidal activity (scale 0 to 100), SOLNI [4, 8]: 100; Herbicidal activity (scale 0 to 100), SOLNI [4, 9]: 100"
CCCNC(=O)c1nc(Cl)c(C)cc1C(=O)Nc1cccc(Cl)c1C,–,–,–,–,–,–,–,"Herbicidal activity (scale 0 to 100), VIOAR [5]: 100; Herbicidal activity (scale 0 to 100), GALAP [6]: 100; Herbicidal activity (scale 0 to 100), ECHCG [7]: 100; Herbicidal activity (scale 0 to 100), IPOSS ([3]; application rate 0.5 kg of a.s./ha): 100"
CCCNC(=O)c1nc(C)ccc1C(=O)Nc1cccc2ccccc12 [drawing 67],–,98,100,75,85,98,100,–
